Paper PMC4995097, “Talin-KANK1 interaction controls the recruitment of cortical microtubule stabilizing complexes to focal adhesions” (eLife, 2016)

Tests used:
Talin1 R7-R8 (1357–1659) = biological target: T1, Talin1 R7-R8 (1357–1659) (Mus musculus, UniProt P26039); assay: Fluorescence polarization binding of BODIPY-labeled KANK peptides to talin1 R7-R8; parameters: species or system murine
T1 construct: peptides to Talin1 R7-R8 (1357–1659) was measured using a Fluorescence Polarization assay; His-tag (cleaved yes); made in house; host or cells: E. coli BL21(DE3)

R7-R8 S1641E = biological target: T2, R7-R8 S1641E (Mus musculus, UniProt P26039, S1641E); assay: Fluorescence polarization binding to talin1 R7-R8 S1641E; parameters: species or system murine; details: 0.5 μM BODIPY TMR-labeled peptide, PBS, room temperature, ± SE, triplicate, panel G, read-out: Dissociation constant (Kd), S1641E
T2 construct: His-tag (cleaved yes); made in house; host or cells: E. coli BL21(DE3)
Excerpt: The cDNAs encoding murine talin1 residues 1357–1653 (R7-R8), 1357–1653 Δ1454–1586 (R7) and 1461–1580 (R8) were synthesized by PCR using a mouse talin1 cDNA as template and cloned into the expression vector pet151-TOPO (Invitrogen) ([Gingras et al., 2010]). Talin mutants were synthesized by GeneArt. Talin polypeptides were expressed in E. coli BL21(DE3) cultured either in LB for unlabeled protein, or in M9 minimal medium for the preparation of isotopically labeled samples for NMR. Recombinant His-tagged talin polypeptides were purified by nickel-affinity chromatography following standard procedures. The His-tag was removed by cleavage with AcTEV protease (Invitrogen), and the proteins were further purified by anion-exchange. Protein concentrations were determined using their respective extinction coefficient at 280 nm.
KANK peptides with a C-terminal cysteine residue were synthesized by Biomatik (USA):
Fluorescence Polarization was carried out on KANK peptides with a carboxy terminal cysteine. […]
The Fluorescence Polarization assay was carried out on a black 96well plate (Nunc). […] Fluorescence Polarization measurements were recorded on a BMGLabTech CLARIOstar plate reader at room temperature and analyzed using GraphPad Prism (version 6.07). Kd values were calculated with a nonlinear curve fitting using a one site total and non-specific binding model.

[1] = test system: LL5β at the cell edge of HeLa cells; assay: Peripheral clustering of LL5β; type: cell-based, human
Experimental: (§1) HeLa Kyoto cell line was described previously ([Lansbergen et al., 2006]; [Mimori-Kiyosue et al., 2005]). HEK293T cells were purchased from ATCC; culture and transfection of DNA and siRNA into these cell lines was performed as previously described ([van der Vaart et al., 2013]). HaCaT cells were purchased at Cell Line Service (Eppelheim, Germany) and cultured according to manufacturer’s instructions. The cell lines were routinely checked for mycoplasma contamination using LT07-518 Mycoalert assay (Lonza, Switzerland).The identity of the cell lines was monitored by immunofluorescence-staining-based analysis with multiple markers. Blebbistatin was purchased from Enzo Life Sciences and used at 50 μM. Serum starvation in HeLa cells was done for 48 hr and focal adhesion assembly was stimulated by incubation with fetal calf serum-containing medium with or without blebbistatin for 2 hr. ROCK1 inhibitor Y-27632 was purchased at Sigma-Aldrich and used at 1 or 10 μM. Double stable HeLa cell line expressing GFP-KANK1 and TagRFP-paxillin was made by viral infection. We used a pLVIN-TagRFP-paxillin-based lentivirus and a pQC-GFP-KANK1-based retrovirus packaged in HEK293T cells using respectively Lenti-X HTX packaging and pCL-Ampho vectors. Antibiotic selection was applied to cells 48 hr after infection using 500 μg/ml G418 (Geneticin, Life Technologies) and 1 μg/ml puromycin (InvivoGen).
Antibodies against HA and GFP tags, and liprin β1 used for Western blot analysis were previously described ([van der Vaart et al., 2013]). Rabbit antibodies against KANK1 (HPA005539) and KANK2 (HPA015643) were purchased at Sigma-Aldrich. Western blot analysis of KANK1 was performed using rabbit polyclonal KANK1 antibody (A301-882A) purchased at Bethyl Laboratories. Talin immunofluorescence staining was performed using mouse monoclonal 8d4 antibody (Sigma-Aldrich). Western blot analysis of talin 1 and 2 expression was performed using respectively the isotype specific mouse monoclonal 97H6 (Sigma-Aldrich) and 68E7 (Abcam) antibodies. Ku80 (7/Ku80) antibody was purchased from BD Biosciences. Immunofluorescence staining of KANK1, LL5β, liprin β1, KIF21A and CLASP2 in HeLa and HaCaT cells was performed using the antibodies and procedures previously described ([Lansbergen et al., 2006]; [van der Vaart et al., 2013]). F-actin was stained using Alexa Fluor 594-conjugated phalloidin (Life Technologies). Phospho-tyrosine mouse antibody (PT-66) was purchased from Sigma-Aldrich and rabbit FAK phospho-tyrosine 397 was purchased from Biosource.
Fixed samples and corresponding immunofluorescence images were acquired using widefield fluorescence illumination on a Nikon Eclipse 80i or Ni upright microscope equipped with a CoolSNAP HQ2 CCD camera (Photometrics) or a DS-Qi2 camera (Nikon) an Intensilight C-HGFI precentered fiber illuminator (Nikon), ET-DAPI, ET-EGFP and ET-mCherry filters (Chroma), Nikon NIS Br software, Plan Apo VC 100x NA 1.4 oil, Plan Apo Lambda 100X oil NA 1.45 and Plan Apo VC 60x NA 1.4 oil (Nikon) objectives. […]

[2] = test system: focal adhesions in HeLa cells; assay: FA number; type: cell-based, human; details: HeLa and HaCaT context; myosin-II inhibition
Experimental: as §1
For presentation, images were adjusted for brightness and processed by Gaussian blur and Unsharp mask filter using ImageJ 1.47v (NIH). Fluorescence profiles are values measured by line scan analysis in ImageJ, normalized by background average fluorescence, expressed as a factor of the baseline value obtained for individual channel and plotted as a function of maximum length factor of the selection line (distance ratio). Protein clustering at the cell edge is the ratio of the total fluorescence in the first 5 μm from the cell edge to the next 5 μm measured by line scan analysis in ImageJ after thresholding for cell outline marking and out-of-cell region value assigned to zero. The results were plotted as percentage of control condition average value. FA counting and area measurement was performed using Analyze Particles under ImageJ on focal adhesion binary mask obtained after Gaussian blur/threshold-based cell outline marking and background subtraction (rolling ball radius, 10 pixels). KANK1/talin colocalization was analyzed using Pearson R value provided by Colocalization Analysis plugin under FiJi-ImageJ and a 3 μm diameter circular ROI centered on talin clusters detected by immunofluorescent staining.

T1 sequence (P26039 1357-1659): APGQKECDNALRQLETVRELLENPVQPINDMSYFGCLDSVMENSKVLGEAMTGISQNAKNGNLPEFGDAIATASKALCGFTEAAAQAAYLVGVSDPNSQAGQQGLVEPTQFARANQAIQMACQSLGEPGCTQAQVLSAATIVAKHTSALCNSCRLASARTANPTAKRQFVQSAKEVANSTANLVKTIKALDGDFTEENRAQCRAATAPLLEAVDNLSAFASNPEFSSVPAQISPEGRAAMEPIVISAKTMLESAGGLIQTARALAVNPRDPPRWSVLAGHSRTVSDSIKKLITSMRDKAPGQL
T2 sequence (P26039 1357-1659 S1641E): as the sequence (P26039 1357-1659) above, with S285E counted along it

CC[C@H](C)[C@H](NC(=O)[C@H](CC(=O)O)NC(=O)[C@H](CC(=O)O)NC(=O)[C@@H](NC(=O)[C@H](Cc1ccc(O)cc1)NC(=O)[C@H](CCCCN)NC(=O)[C@@H](NC(=O)[C@H](Cc1ccccc1)NC(=O)[C@H](CC(=O)O)NC(=O)[C@H](CC(C)C)NC(=O)[C@H](CC(=O)O)NC(=O)[C@H](CC(C)C)NC(=O)[C@H](CCC(N)=O)NC(=O)[C@H](Cc1ccccc1)NC(=O)CNC(=O)[C@H](Cc1ccc(O)cc1)NC(=O)[C@@H]1CCCN1C(=O)[C@@H](NC(=O)[C@H](CCC(=O)O)NC(=O)[C@@H](NC(=O)[C@H](Cc1ccccc1)NC(=O)[C@H](Cc1ccc(O)cc1)NC(=O)[C@@H]1CCCN1)C(C)C)[C@@H](C)O)C(C)C)C(C)C)C(=O)N[C@@H](CCC(N)=O)C(=O)N[C@@H](CCCCN)C(=O)NCC(=O)N[C@@H](CC(N)=O)C(=O)N[C@H](C(=O)N[C@H](C(=O)N[C@@H](CCCCN)C(=O)N[C@@H](CCCCN)C(=O)N[C@@H](CS)C(=O)O)[C@@H](C)CC)[C@@H](C)O [KANK1(30–60)C]
Kd (Talin1 R7-R8 (1357–1659); Fluorescence polarization, 0.5 μM BODIPY TMR-labeled peptide, increasing talin R7-R8, PBS, room temperature, one site total and non-specific binding, ± SE, triplicate, panel F, read-out: Dissociation constant (Kd), Fig. 2F): 0.8 ± 0.1 µM
Kd (R7-R8 S1641E): 2.1 ± 0.4 µM

PYFVETPYGFQAAAAFVKYVDDIQKGNTIKKLNIQKRRKC [KANK1-4A, KANK1 KN peptide with LDLD motif mutated to AAAA]
binding to talin (in words) (Talin1 R7-R8 (1357–1659); Fluorescence polarization and HSQC (Figure 2C,F)): abolished binding to talin

Cc1ccc2c(c1)C(=O)C1(O)CCN(c3ccccc3)C1=N2 (stereo not drawn) [blebbistatin, reference compound]
Peripheral clustering of LL5β, percentage of control, average ([1]; blebbistatin 50 μM, FCS 2 h, mean, n = 30, SEM 4.45772): 29.4558 percentage of control condition average value
clustering of CMSC components (in words) ([1]; blebbistatin, cell periphery): strong reduction in clustering of CMSC components at the cell periphery
FA effect of blebbistatin (in words) [2]: FA disassembly
